According to patent US20050106276A1, “Pharmaceutical composition made from Chinese traditional medecine and method of producing thereof” (Jiangsu Kanion Pharmaceutial Co. Ltd., priority 2001, published 2005):
Counter-ions that a name gives are not always drawn.

Columns and labels:
[1] = system: experimental mice with hyperglycaemia; assay: blood glucose value of mice with hyperglycaemia lead by Streptozocin; format: in vivo, mouse; conditions: Streptozocin mice serum
Experimental: 100 male mice, weighting 25˜30 g, were given Streptozocin on the dosage of 180 mg/kg by intraperitoneal injection. taking blood from eye sockets of the survivals 72 hours later, using evaluate kit evaluated serum glucose, select 40 mice with hyperglycosemia whose serum glucose value is 18˜33 mmol/L, Which were randomly divided into 4 groups: Model group, Positive medicine Phenformin group, High and low dose of invented capsule group. All mice were intragastric administration 1 time each day in 10 days; Take another 10 mice as normal control group. All mice were fasting diet 12 hours after last administration, then taking blood from eye sockets, separating blood serum, using evaluate kit evaluated serum glucose value with Glucose enzymic method, then using t-value method to compare the significance with model group.

[2] = system: experimental rats with hyperglycaemia; assay: blood glucose value of rats with hyperglycaemia lead by alloxan; format: in vivo, rat; conditions: alloxan rats serum
Experimental: 160 male rats, weighting 200˜250 g, were given alloxan on the dosage of 200 mg/kg by intraperitoneal injection. taking blood from eye sockets of the survivals 72 hours later, using evaluate kit evaluated serum glucose, select 40 rats with hyperglycosemia whose serum glucose value is 20˜25 mmol/L, Which were randomly divided into 4 groups: Model group, Positive medicine Phenformin group, High and low dose of invented capsule group. All rats were intragastric administration 1 time each day in 10 days; Take another 10 mice as normal control group. All mice were fasting diet 12 hours after last administration, then taking blood from eye sockets, separating blood serum, using evaluate kit evaluated serum glucose value with Glucose enzymic method, then using t-value method to compare the significance with model group.

[3] = 0.1 g/kg intragastric daily 10 days

## [H]/N=C(/N)N/C(=N/[H])NCCc1ccccc1 [Phenformin, Phenformin Hydrochloride]
[1]; [3]
  GLU After administration: 12.51 ± 6.93 mmol/L
[1]; baseline of 0.1 g/kg group
  GLU Before administration: 25.43 ± 3.93 mmol/L
[2]; [3]
  GLU After administration: 14.52 ± 4.99 mmol/L
[2]; baseline of 0.1 g/kg group
  GLU Before administration: 22.72 ± 1.53 mmol/L
